US20260274892A1, “MACROCYCLIC BROAD SPECTRUM ANTIBIOTICS” (RQx Pharmaceuticals, Inc., priority 2017, published 2026)

Assays:
[1] = test system: Methicillin Resistant Staphylococcus aureus strain USA 200; test: Minimum inhibitory concentration (MIC), CLSI broth micro-dilution, S. aureus; format: cell-based; settings: Staphylococcus aureus, MRSA / USA200; Table 6; MRSA USA 200; cation adjusted Mueller Hinton Broth + 0.002% Tween-80; 35° C., 22 hours
Outline: (§1)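 Antibacterial potency is measured as MIC by the CLSI broth dilution method. Bacteria at OD600 0.0005 in Tween-80-supplemented cation-adjusted Mueller Hinton broth face ten twofold compound dilutions for 22 h at 35° C.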

[2] = test system: Escherichia coli ATCC 25922; test: Minimum inhibitory concentration (MIC), CLSI broth micro-dilution, E. coli; format: cell-based; settings: Escherichia coli, ATCC25922, 22 h, Table 6, cation adjusted Mueller Hinton Broth + 0.002% Tween-80, 35° C.
Outline: as §1

Row | SMILES | MIC [1] [µM] | MIC [2] [µM]
1 | C[C@@H]1NC(=O)[C@@H](N(C)C(=O)[C@H](CCN)NC(=O)c2cnc(-c3ccc(C(C)(C)C)cc3)c(=O)n2C)c2ccc(OCCN)c(c2)-c2cc(ccc2OCCN)C[C@@H](C(=O)NCC#N)NC1=O (racemic) [Compound 386, rac-(8S,11S,14S)-3,18-bis(2-aminoethoxy)-N-(cyanomethyl)-11-methyl-14-[methyl-[rac-(2S)-4-amino-2-[[5-(4-tert-butylphenyl)-1-methyl-6-oxo-pyrazine-2-carbonyl]amino]butanoyl]amino]-10,13-dioxo-9,12-diazatricyclo[13.3.1.12,6]icosa-1(18),2(20),3,5,15(19),16-hexaene-8-carboxamide] | 0.75 | 8
2 | CCCCCCc1ncc(-c2ccc(C(=O)N[C@@H](CCN)C(=O)N(C)[C@@H]3C(=O)N[C@@H](C)C(=O)N[C@H](C(=O)NCC#N)Cc4ccc(OCCN)c(c4)-c4cc3ccc4OCCN)c(C(F)F)c2)cn1 (racemic) [Compound 388, rac-(8S,11S,14S)-3,18-bis(2-aminoethoxy)-N-(cyanomethyl)-11-methyl-14-[methyl-[rac-(2S)-4-amino-2-[[2-(difluoromethyl)-4-(2-hexylpyrimidin-5-yl)benzoyl]amino]butanoyl]amino]-10,13-dioxo-9,12-diazatricyclo[13.3.1.12,6]icosa-1(18),2(20),3,5,15(19),16-hexaene-8-carboxamide] | 0.031 | 1
3 | C[C@@H]1NC(=O)[C@@H](N(C)C(=O)[C@H](CCN)NC(=O)C2CCN(c3ccc(C(C)(C)C)cc3)CC2)c2ccc(OCCN)c(c2)-c2cc(ccc2OCCN)C[C@@H](C(=O)NCC#N)NC1=O (racemic) [Compound 389, rac-(8S,11S,14S)-3,18-bis(2-aminoethoxy)-N-(cyanomethyl)-11-methyl-14-[methyl-[rac-(2S)-4-amino-2-[[1-(4-tert-butylphenyl)piperidine-4-carbonyl]amino]butanoyl]amino]-10,13-dioxo-9,12-diazatricyclo[13.3.1.12,6]icosa-1(18),2(20),3,5,15(19),16-hexaene-8-carboxamide] | 0.13 | 4
4 | Cc1nc2cc(-c3ccc(C(C)(C)C)cc3)ccn2c1C(=O)N[C@@H](CCN)C(=O)N(C)[C@@H]1C(=O)N[C@@H](C)C(=O)N[C@H](C(=O)NCC#N)Cc2ccc(OCCN)c(c2)-c2cc1ccc2OCCN (racemic) [Compound 393, rac-(8S,11S,14S)-3,18-bis(2-aminoethoxy)-N-(cyanomethyl)-11-methyl-14-[methyl-[rac-(2S)-4-amino-2-[[7-(4-tert-butylphenyl)-2-methyl-imidazo[1,2-a]pyridine-3-carbonyl]amino]butanoyl]amino]-10,13-dioxo-9,12-diazatricyclo[13.3.1.12,6]icosa-1(18),2(20),3,5,15(19),16-hexaene-8-carboxamide] | 0.021 | 8.2
5 | CCCCCCc1ccc2cc(C(=O)N[C@@H](CCN)C(=O)N(C)[C@@H]3C(=O)N[C@@H](C)C(=O)N[C@H](C(=O)NCC#N)Cc4ccc(OCCN)c(c4)-c4cc3ccc4OCCN)c(C)nc2c1 (racemic) [Compound 394, rac-(8S,11S,14S)-3,18-bis(2-aminoethoxy)-N-(cyanomethyl)-11-methyl-14-[methyl-[rac-(2S)-4-amino-2-[(7-hexyl-2-methyl-quinoline-3-carbonyl)amino]butanoyl]amino]-10,13-dioxo-9,12-diazatricyclo[13.3.1.12,6]icosa-1(18),2(20),3,5,15(19),16-hexaene-8-carboxamide] | 0.0083 | 0.2
6 | CCCCCCc1ccc2nc(C)c(C(=O)N[C@@H](CCN)C(=O)N(C)[C@@H]3C(=O)N[C@@H](C)C(=O)N[C@H](C(=O)NCC#N)Cc4ccc(OCCN)c(c4)-c4cc3ccc4OCCN)cc2c1 (racemic) [Compound 395, rac-(8S,11S,14S)-3,18-bis(2-aminoethoxy)-N-(cyanomethyl)-11-methyl-14-[methyl-[rac-(2S)-4-amino-2-[(6-hexyl-2-methyl-quinoline-3-carbonyl)amino]butanoyl]amino]-10,13-dioxo-9,12-diazatricyclo[13.3.1.12,6]icosa-1(18),2(20),3,5,15(19),16-hexaene-8-carboxamide] | 0.013 | 0.27
7 | CCCCCCOc1ccc2nc(C)c(C(=O)N[C@@H](CCN)C(=O)N(C)[C@@H]3C(=O)N[C@@H](C)C(=O)N[C@H](C(=O)NCC#N)Cc4ccc(OCCN)c(c4)-c4cc3ccc4OCCN)cc2c1 (racemic) [Compound 396, rac-(8S,11S,14S)-3,18-bis(2-aminoethoxy)-N-(cyanomethyl)-11-methyl-14-[methyl-[rac-(2S)-4-amino-2-[(6-hexoxy-2-methyl-quinoline-3-carbonyl)amino]butanoyl]amino]-10,13-dioxo-9,12-diazatricyclo[13.3.1.12,6]icosa-1(18),2(20),3,5,15(19),16-hexaene-8-carboxamide] | 0.016 | 0.5

The remaining lines, values ahead:

Row | MIC [1] [µM] | MIC [2] [µM] | SMILES
8 | 0.023 | 0.38 | Cc1nc2ccc(Oc3ccc(C(C)(C)C)cc3)cc2cc1C(=O)N[C@@H](CCN)C(=O)N(C)[C@@H]1C(=O)N[C@@H](C)C(=O)N[C@H](C(=O)NCC#N)Cc2ccc(OCCN)c(c2)-c2cc1ccc2OCCN (racemic) [Compound 397, rac-(8S,11S,14S)-3,18-bis(2-aminoethoxy)-N-(cyanomethyl)-11-methyl-14-[methyl-[rac-(2S)-4-amino-2-[[6-(4-tert-butylphenoxy)-2-methyl-quinoline-3-carbonyl]amino]butanoyl]amino]-10,13-dioxo-9,12-diazatricyclo[13.3.1.12,6]icosa-1(18),2(20),3,5,15(19),16-hexaene-8-carboxamide]
9 | 0.025 | 0.27 | CCCCCCc1cnc2cc(C(=O)N[C@@H](CCN)C(=O)N(C)[C@@H]3C(=O)N[C@@H](C)C(=O)N[C@H](C(=O)NCC#N)Cc4ccc(OCCN)c(c4)-c4cc3ccc4OCCN)c(C)nc2c1 (racemic) [Compound 398, rac-(8S,11S,14S)-3,18-bis(2-aminoethoxy)-N-(cyanomethyl)-11-methyl-14-[methyl-[rac-(2S)-4-amino-2-[(7-hexyl-2-methyl-1,5-naphthyridine-3-carbonyl)amino]butanoyl]amino]-10,13-dioxo-9,12-diazatricyclo[13.3.1.12,6]icosa-1(18),2(20),3,5,15(19),16-hexaene-8-carboxamide]
10 | 0.0078 | 0.5 | CCCCCCc1ccc2nc(C)c(C(=O)N[C@@H](CCN)C(=O)N(C)[C@@H]3C(=O)N[C@@H](C)C(=O)N[C@H](C(=O)NCC#N)Cc4ccc(OCCN)c(c4)-c4cc3ccc4OCCN)c(C)c2c1 (racemic) [Compound 399, rac-(8S,11S,14S)-3,18-bis(2-aminoethoxy)-N-(cyanomethyl)-11-methyl-14-[methyl-[rac-(2S)-4-amino-2-[(6-hexyl-2,4-dimethyl-quinoline-3-carbonyl)amino]butanoyl]amino]-10,13-dioxo-9,12-diazatricyclo[13.3.1.12,6]icosa-1(18),2(20),3,5,15(19),16-hexaene-8-carboxamide]
